Data reported in patent publication US20260103471A1, “CYCLIC UREA THIAZOLYL COMPOUNDS FOR TREATMENT OF HSV” (Assembly Biosciences, Inc., priority 2022, published 2026).

System: HSV-2 G strain
Assay: HSV-2 Antiviral Assay (Vero cells, cell viability)
Format: cell-based
Conditions: Human alphaherpesvirus 2, Vero, 120 h, Vero cells, 160 TCID50 HSV-2 G strain, 5 days, cell viability
Description: Vero cells were cultured in Dulbecco's Modified Eagle Medium (DMVEM) supplemented with […] and 100 units/mL penicillin and streptomycin. The cells were passaged 2-3 times per week to maintain sub-confluent densities.
Vero cells were seeded into 96-well plates at a density of 1.0×10^4 cells per well and allowed to attach overnight. Following attachment, the media was replaced with 50 μL of infection medium (DMEM supplemented with 2% fetal bovine serum and 100 units/mL penicillin and streptomycin). A Tecan D300e digital dispenser was then used to add compounds to the culture using an 8-point 3-fold serial dilution format. The DMSO concentration was normalized to 0.5% for all treatments. Following compound addition, 50 μL of infection medium containing 160 TCID50 HSV-2 G strain was added to the cells and incubated at 37° C. for 5 days. After the incubation, 10 μL/well of WST-8 chromogenic reagent was added and the plates incubated at 37° C. for 3 hours. Following the incubation, cell viability was quantified by measuring the absorbance at 460 nm and 620 nm using a Tecan Infinite M1000 Pro plate reader.

Compound	EC50 [nM]
Cc1nc(N2CCCN(c3ccc(-c4cc(F)ccc4F)cc3)C2=O)sc1S(=O)(=O)NC(C)(C)CO [Compound 402]	100 to 1000
CN=[S@@](C)(=O)c1sc(N2CCCN(c3ccc(-c4cc(F)ccc4F)cc3)C2=O)nc1C (single isomer, unassigned) [Compound 152]	1000 to 5000
COc1ccc(F)cc1-c1ccc(N2C[C@H](C)CN(c3nc(C)c(S(N)(=O)=O)s3)C2=O)cc1 (single isomer, unassigned) [Compound 331]	< 100
Cc1nc(N2CC(C)CN(c3ccc(-c4ccccc4F)cc3)C2=O)sc1S(N)(=O)=O (stereo not shown) [Compound 315]	< 100
Cc1nc(N2CCCN(c3ccc(-c4cc(F)cc5c4c(C)cn5C)cc3)C2=O)sc1S(N)(=O)=O [Compound 291]	< 100
Cc1nc(N2CC(C)CN(c3ccc(-c4ccccc4)cc3)C2=O)sc1S(N)(=O)=O (stereo not shown) [Compound 326]	< 100
CSc1ccccc1-c1ccc(N2CCCN(c3nc(C)c(S(N)(=O)=O)s3)C2=O)cc1 [Compound 11]	< 100
Cc1nc(N2C[C@@H](C)CN(c3ccc(-c4cc(F)ccc4F)cc3)C2=O)sc1S(N)(=O)=O (single isomer, unassigned) [Compound 320]	< 100
COc1c(F)cc(F)cc1-c1ccc(N2CC(C(F)(F)F)CN(c3nc(C)c(S(N)(=O)=O)s3)C2=O)cc1 (stereo not shown) [Compound 372]	< 100
CN=S(C)(=O)c1sc(N2CCCN(c3ccc(-c4cc(F)ccc4F)cc3)C2=O)nc1C (stereo not shown) [Compound 151]	100 to 1000
Cc1nc(N2CCCN(c3ccc(-c4cc(F)cc(/C=C/C#N)c4)cc3)C2=O)sc1S(N)(=O)=O [Compound 192]	< 100
COc1cc(-c2ccc(N3CCCN(c4nc(C)c(S(N)(=O)=O)s4)C3=O)cc2)c2ccn(C)c2c1 [Compound 301]	< 100
Cc1nc(N2CCCN(c3ccc(-c4cc(F)ccc4F)cc3)C2=O)sc1S(=O)(=O)NCCCF [Compound 391]	< 100
Cc1nc(N2CCCN(c3ccc(-c4cc(F)cc5nc(C(F)(F)F)sc45)cc3)C2=O)sc1S(N)(=O)=O [Compound 257]	< 100
Cc1nc(N2CCCN(c3ccc(-c4cc(C5CC5)ccc4F)cc3)C2=O)sc1S(N)(=O)=O [Compound 205]	100 to 1000
Cc1nc(N2CC(C(N)=O)CN(c3ccc(-c4cc(F)ccc4F)cc3)C2=O)sc1S(N)(=O)=O (stereo not shown) [Compound 381]	100 to 1000
Cc1nc(N2CCCN(c3ccc(-c4nccc(Cl)c4F)cc3)C2=O)sc1S(N)(=O)=O [Compound 37]	100 to 1000
Cc1nc(N2CC[C@@H](C)N(c3ccc(-c4cc(F)ccc4F)cc3)C2=O)sc1S(N)(=O)=O (single isomer, unassigned) [Compound 333]	< 100
Cc1nc(N2CCCN(c3ccc(-c4cc(F)ccc4F)cc3)C2=O)sc1S(=O)(=O)Nc1ccccn1 [Compound 406]	< 100
Cc1nc(N2CCN(c3ccc(-c4cc(F)cc5nsnc45)cc3)C2=O)sc1S(N)(=O)=O [Compound 314]	< 100
Cc1nc(N2CCCN(c3ccc(-c4cccc5c(C)cnn45)cc3)C2=O)sc1S(N)(=O)=O [Compound 247]	< 100

Compound	EC50 [nM]
CNS(=O)(=O)c1sc(N2CCCN(c3ccc(-c4cccc5cc(N)ncc45)cc3)C2=O)nc1C [Compound 411]	< 100
Cc1nc(N2CCCN(c3ccc(-c4cc(F)ccc4C#CC(C)(C)O)cc3)C2=O)sc1S(N)(=O)=O [Compound 19, 2-(3-(5′-Fluoro-2′-(3-hydroxy-3-methylbut-1-yn-1-yl)-[1,1′-biphenyl]-4-yl)-2-oxotetrahydropyrimidin-1(2H)-yl)-4-methylthiazole-5-sulfonamide]	1000 to 5000
NS(=O)(=O)c1sc(N2CCCN(c3ccc(-c4cc(F)cc5nsnc45)cc3)C2=O)nc1C(F)(F)F [Compound 438]	1000 to 5000
Cc1nc(N2CCCCN(c3ccc(-c4cccc5ncsc45)cc3)C2=O)sc1[S@@](C)(=N)=O (single isomer, unassigned) [Compound 429]	< 100
Cc1nc(N2CCCN(c3ccc(-c4cc(C(F)F)ccc4F)cc3)C2=O)sc1S(N)(=O)=O [Compound 206]	< 100
Cc1nc(N2CCCN(c3ccc(-c4cc(F)ccc4F)cc3)C2=O)sc1S(=O)(=O)N[C@@H]1CC[C@@H](O)C1 [Compound 400]	< 100
Cc1nc(N2CCCN(c3ccc(-c4cc(F)cc5c4c(F)cn5C)cc3)C2=O)sc1S(N)(=O)=O [Compound 295]	< 100
Cc1nc(N2CCCN(c3ccc(-c4cc(C#N)cc5ncsc45)cc3)C2=O)sc1S(N)(=O)=O [Compound 278]	100 to 1000
Cc1nc(N2CCCCN(c3ccc(-c4cccc5ncsc45)cc3)C2=O)sc1S(C)(=N)=O (stereo not shown) [Compound 428]	< 100
Cc1csc(-c2ccc(N3CC4(CC4)CN(c4nc(C)c(S(N)(=O)=O)s4)C3=O)cc2)n1 [Compound 114]	< 100
Cc1nc(N2CCCN(c3ccc(-c4cccc5c4cc(C)n5C)cc3)C2=O)sc1S(N)(=O)=O [Compound 250]	< 100
Cc1nc(N2C[C@H](F)CN(c3ccc(-c4cc(F)ccc4F)cc3)C2=O)sc1S(N)(=O)=O (single isomer, unassigned) [Compound 364]	< 100
Cc1nc(N2CC3(COC3)CN(c3ccc(-c4cc(F)ccn4)cc3)C2=O)sc1S(N)(=O)=O [Compound 379]	< 100
Cc1nc(N2CCCCN(c3ccc(-c4cc(F)cc5nsnc45)cc3)C2=O)sc1S(N)(=O)=O [Compound 313]	< 100
COCCCCNS(=O)(=O)c1sc(N2CCCN(c3ccc(-c4cc(F)ccc4F)cc3)C2=O)nc1C [Compound 390]	< 100
Cc1nc(N2CC3(COC3)CN(c3ccc(-c4cc(F)ccc4F)cc3)C2=O)sc1[S@](C)(=N)=O (single isomer, unassigned) [Compound 433]	< 100
Cc1nc(N2CCCN(c3ccc(-c4cc(C(C)(F)F)cc5c4OCO5)cc3)C2=O)sc1S(N)(=O)=O [Compound 273]	100 to 1000
Cc1nc(N2CCCN(c3ccc(-c4cc(C(C)(F)F)cs4)cc3)C2=O)sc1S(N)(=O)=O [Compound 241]	1000 to 5000
Cc1nc(N2CCCN(c3ccc(-c4cccc(-c5ccnn5C)c4)cc3)C2=O)sc1S(N)(=O)=O [Compound 32]	100 to 1000
Cc1nc(N2CCCN(c3ccc(-c4cc(F)ccc4F)cc3)C2=O)sc1S(=O)(=O)NCCCCCCCCCCO [Compound 420]	< 100
Cc1nc(N2CCCN(c3ccc(-c4cc(F)cc5nc(C#N)sc45)cc3)C2=O)sc1S(N)(=O)=O [Compound 279]	100 to 1000

Compound	EC50 [nM]
Cc1nc(N2CCCN(c3ccc(-c4nn(C)c5ccccc45)cc3)C2=O)sc1S(N)(=O)=O [Compound 92]	< 100
COc1cc(Cl)c(F)c(-c2ccc(N3CCCN(c4nc(C)c(S(N)(=O)=O)s4)C3=O)cc2)c1 [Compound 218]	< 100
COc1ncc(F)cc1-c1ccc(N2CCCN(c3nc(C)c(S(N)(=O)=O)s3)C2=O)cc1 [Compound 239]	< 100
Cc1nc(N2C[C@H](F)CN(c3ccc(-c4cc(F)ccc4F)cc3)C2=O)sc1S(=O)(=O)NCCO (single isomer, unassigned) [Compound 414]	< 100
Cc1nc(N2CCCN(c3ccc(-c4cccc5sccc45)cc3)C2=O)sc1S(N)(=O)=O [Compound 285]	< 100
COc1c(F)cc(F)cc1-c1ccc(N2C[C@@H](C(C)(C)O)CN(c3nc(C)c(S(N)(=O)=O)s3)C2=O)cc1 (single isomer, unassigned) [Compound 346]	100 to 1000
Cc1nc(N2CC(F)(F)CN(c3ccc(-c4cc(F)ccc4F)cc3)C2=O)sc1S(N)(=O)=O [Compound 367]	< 100
CCC[S@@](=N)(=O)c1sc(N2CCCN(c3ccc(-c4cc(F)cc(F)c4F)cc3)C2=O)nc1C (single isomer, unassigned) [Compound 424]	< 100
Cc1nc(N2CCCN(c3ccc(-c4cc(F)ccc4F)cc3)C2=O)sc1S(=O)(=O)N1CCC(N)C1 (stereo not shown) [Compound 397]	100 to 1000
Cc1nc(N2CCCN(c3ccc(-c4snc5c(F)cc(F)cc45)cc3)C2=O)sc1S(N)(=O)=O [Compound 306]	< 100
Cc1nc(N2CCCN(c3ccc(-c4cc(C5(C#N)CC5)ccc4F)cc3)C2=O)sc1S(N)(=O)=O [Compound 208]	< 100
Cc1nc(N2CCCCN(c3ccc(-c4cc(F)ccc4F)cc3)C2=O)sc1[S@](C)(=N)=O (single isomer, unassigned) [Compound 427]	< 100
Cc1nc(N2CCCN(c3ccc(-c4cc(F)ccc4F)cc3)C2=O)sc1S(=O)(=O)NCCO [Compound 388, 2-(3-(2′,5′-difluoro-[1,1′-biphenyl]-4-yl)-2-oxotetrahydropyrimidin-1(2H)-yl)-N-(2-hydroxyethyl)-4-methylthiazole-5-sulfonamide]	< 100
Cc1nc(N2CCCN(c3ccc(-c4cc(F)cc(C(F)F)c4)cc3)C2=O)sc1S(N)(=O)=O [Compound 222]	< 100
Cc1nc(N2CCCN(c3ccc(-c4cc(C(F)(F)F)cc5c4c(CO)cn5C)cc3)C2=O)sc1S(N)(=O)=O [Compound 292]	1000 to 5000
Cc1nc(N2CCCN(c3ccc(-c4cc(F)cc5c(C)c(C(C)(C)F)sc45)cc3)C2=O)sc1S(N)(=O)=O [Compound 283]	100 to 1000
Cc1nc(N2CCCN(c3ccc(-c4cc(C(F)(F)F)cc5c4cnn5C)cc3)C2=O)sc1S(N)(=O)=O [Compound 287]	< 100
CONS(=O)(=O)c1sc(N2CCCN(c3ccc(-c4cc(F)ccc4F)cc3)C2=O)nc1C [Compound 386]	< 100
Cc1nc(N2C[C@@H](C(F)F)CN(c3ccc(-c4cc(F)ccc4F)cc3)C2=O)sc1S(N)(=O)=O (single isomer, unassigned) [Compound 370]	< 100
